Laboratory results taken from paper PMC10174618, “Monoterpenoid aryl hydrocarbon receptor allosteric antagonists protect against ultraviolet skin damage in female mice” (Nature Communications, 2023).

Experiments:
Assay in all cases: biochemical
Set-up in all cases: KINOMEscan scanMAX active site-directed competition binding assay, percent of control, 468 kinases
Conditions in all cases: competition binding, percent of control
[1] = target: LIMK1 (Homo sapiens, UniProt P53667)
Method in brief: (§1)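 Single-concentration screen (100 μM S-carvone) in a competition binding panel of 468 human kinases (KINOMEscan scanMAX); results given as percent of control, hit cutoff 35%.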

[2] = target: PIK3CA(E542K) (Homo sapiens, UniProt P42336, E542K)
Method in brief: as §1

[3] = target: PAK3 (Homo sapiens, UniProt O75914)
Method in brief: as §1

[4] = target: NEK7 (Homo sapiens, UniProt Q8TDX7)
Chain of NEK7 (Q8TDX7 whole entry): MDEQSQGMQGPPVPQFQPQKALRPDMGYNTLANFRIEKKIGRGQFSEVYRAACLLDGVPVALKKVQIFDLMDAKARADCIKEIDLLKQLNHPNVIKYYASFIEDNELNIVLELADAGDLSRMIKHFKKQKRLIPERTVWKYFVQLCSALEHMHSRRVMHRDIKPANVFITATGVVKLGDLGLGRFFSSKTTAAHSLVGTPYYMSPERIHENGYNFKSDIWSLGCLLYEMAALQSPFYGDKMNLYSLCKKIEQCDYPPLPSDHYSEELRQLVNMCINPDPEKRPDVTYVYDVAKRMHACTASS
Method in brief: as §1

[5] = target: DYRK2 (Homo sapiens, UniProt Q92630)
Chain of DYRK2 (Q92630 whole entry): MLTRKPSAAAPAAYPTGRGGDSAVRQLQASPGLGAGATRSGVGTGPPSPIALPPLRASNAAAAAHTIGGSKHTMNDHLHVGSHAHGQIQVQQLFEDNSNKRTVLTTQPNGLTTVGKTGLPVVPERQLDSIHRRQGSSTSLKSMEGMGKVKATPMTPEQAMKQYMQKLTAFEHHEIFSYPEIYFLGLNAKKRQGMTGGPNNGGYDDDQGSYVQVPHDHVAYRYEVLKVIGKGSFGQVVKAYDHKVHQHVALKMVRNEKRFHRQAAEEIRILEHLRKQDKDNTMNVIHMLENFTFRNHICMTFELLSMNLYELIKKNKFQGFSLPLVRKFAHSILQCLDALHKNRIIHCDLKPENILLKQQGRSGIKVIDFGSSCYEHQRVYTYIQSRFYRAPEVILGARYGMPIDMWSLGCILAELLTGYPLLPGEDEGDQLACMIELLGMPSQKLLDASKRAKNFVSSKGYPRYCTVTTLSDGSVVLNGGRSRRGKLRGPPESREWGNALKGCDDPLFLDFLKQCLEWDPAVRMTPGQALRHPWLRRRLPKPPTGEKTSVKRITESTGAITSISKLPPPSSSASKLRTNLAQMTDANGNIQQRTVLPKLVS
Method in brief: as §1

[6] = target: T1, RSK1(Kin.Dom.1-N-terminal) (Homo sapiens, UniProt Q15418)
T1 construct: gene RPS6KA1; Kin.Dom.1-N-terminal
Method in brief: as §1

[7] = target: CAMK1G (Homo sapiens, UniProt Q96NX5)
Chain of CAMK1G (Q96NX5 whole entry): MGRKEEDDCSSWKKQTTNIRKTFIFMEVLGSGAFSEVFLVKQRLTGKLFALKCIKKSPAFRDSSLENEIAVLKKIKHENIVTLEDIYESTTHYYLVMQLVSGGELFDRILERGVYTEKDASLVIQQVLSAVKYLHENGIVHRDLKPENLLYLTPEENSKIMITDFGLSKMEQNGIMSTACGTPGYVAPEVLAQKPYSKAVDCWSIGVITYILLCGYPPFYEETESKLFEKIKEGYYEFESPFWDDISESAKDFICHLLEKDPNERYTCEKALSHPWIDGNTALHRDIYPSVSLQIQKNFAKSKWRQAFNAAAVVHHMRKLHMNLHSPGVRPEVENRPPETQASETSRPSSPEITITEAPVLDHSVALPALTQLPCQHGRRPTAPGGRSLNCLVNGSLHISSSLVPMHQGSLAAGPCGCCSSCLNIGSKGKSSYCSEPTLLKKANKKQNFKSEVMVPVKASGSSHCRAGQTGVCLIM
Method in brief: as §1

[8] = target: EPHA8 (Homo sapiens, UniProt P29322)
Method in brief: as §1

[9] = target: PIK3CA(Q546K) (Homo sapiens, UniProt P42336, Q546K)
Chain of PIK3CA(Q546K) (P42336 whole entry Q546K): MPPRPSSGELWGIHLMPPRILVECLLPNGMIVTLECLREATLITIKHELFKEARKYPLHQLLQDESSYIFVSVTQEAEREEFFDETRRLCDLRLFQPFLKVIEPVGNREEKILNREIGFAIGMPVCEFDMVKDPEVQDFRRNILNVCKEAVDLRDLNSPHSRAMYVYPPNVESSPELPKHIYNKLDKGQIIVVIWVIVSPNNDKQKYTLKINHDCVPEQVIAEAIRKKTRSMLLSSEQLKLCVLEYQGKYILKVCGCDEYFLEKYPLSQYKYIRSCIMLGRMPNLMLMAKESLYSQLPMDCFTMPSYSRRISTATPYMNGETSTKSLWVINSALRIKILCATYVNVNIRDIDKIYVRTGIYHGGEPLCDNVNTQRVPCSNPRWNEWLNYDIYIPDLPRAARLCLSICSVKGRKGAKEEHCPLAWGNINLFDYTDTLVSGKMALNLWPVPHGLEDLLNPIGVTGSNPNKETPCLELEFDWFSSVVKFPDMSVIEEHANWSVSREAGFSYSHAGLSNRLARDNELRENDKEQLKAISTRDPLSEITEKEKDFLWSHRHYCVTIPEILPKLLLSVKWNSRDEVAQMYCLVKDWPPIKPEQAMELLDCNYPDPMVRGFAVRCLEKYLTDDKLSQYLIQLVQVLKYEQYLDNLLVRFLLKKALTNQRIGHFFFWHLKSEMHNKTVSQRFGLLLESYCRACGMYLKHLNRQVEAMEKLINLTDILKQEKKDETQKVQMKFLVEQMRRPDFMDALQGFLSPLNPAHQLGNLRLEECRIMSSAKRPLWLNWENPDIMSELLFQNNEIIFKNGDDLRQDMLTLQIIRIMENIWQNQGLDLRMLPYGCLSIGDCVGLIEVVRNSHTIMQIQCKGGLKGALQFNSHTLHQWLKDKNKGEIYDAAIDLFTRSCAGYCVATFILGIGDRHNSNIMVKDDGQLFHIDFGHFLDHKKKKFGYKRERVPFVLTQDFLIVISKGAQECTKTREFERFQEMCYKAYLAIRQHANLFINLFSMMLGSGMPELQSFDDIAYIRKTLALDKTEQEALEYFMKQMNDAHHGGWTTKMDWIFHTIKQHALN
Method in brief: as §1

[10] = target: PIM3 (Homo sapiens, UniProt Q86V86)
Method in brief: as §1

[11] = target: KIT(L576P) (Homo sapiens, UniProt P10721, L576P)
Chain of KIT(L576P) (P10721 whole entry L576P): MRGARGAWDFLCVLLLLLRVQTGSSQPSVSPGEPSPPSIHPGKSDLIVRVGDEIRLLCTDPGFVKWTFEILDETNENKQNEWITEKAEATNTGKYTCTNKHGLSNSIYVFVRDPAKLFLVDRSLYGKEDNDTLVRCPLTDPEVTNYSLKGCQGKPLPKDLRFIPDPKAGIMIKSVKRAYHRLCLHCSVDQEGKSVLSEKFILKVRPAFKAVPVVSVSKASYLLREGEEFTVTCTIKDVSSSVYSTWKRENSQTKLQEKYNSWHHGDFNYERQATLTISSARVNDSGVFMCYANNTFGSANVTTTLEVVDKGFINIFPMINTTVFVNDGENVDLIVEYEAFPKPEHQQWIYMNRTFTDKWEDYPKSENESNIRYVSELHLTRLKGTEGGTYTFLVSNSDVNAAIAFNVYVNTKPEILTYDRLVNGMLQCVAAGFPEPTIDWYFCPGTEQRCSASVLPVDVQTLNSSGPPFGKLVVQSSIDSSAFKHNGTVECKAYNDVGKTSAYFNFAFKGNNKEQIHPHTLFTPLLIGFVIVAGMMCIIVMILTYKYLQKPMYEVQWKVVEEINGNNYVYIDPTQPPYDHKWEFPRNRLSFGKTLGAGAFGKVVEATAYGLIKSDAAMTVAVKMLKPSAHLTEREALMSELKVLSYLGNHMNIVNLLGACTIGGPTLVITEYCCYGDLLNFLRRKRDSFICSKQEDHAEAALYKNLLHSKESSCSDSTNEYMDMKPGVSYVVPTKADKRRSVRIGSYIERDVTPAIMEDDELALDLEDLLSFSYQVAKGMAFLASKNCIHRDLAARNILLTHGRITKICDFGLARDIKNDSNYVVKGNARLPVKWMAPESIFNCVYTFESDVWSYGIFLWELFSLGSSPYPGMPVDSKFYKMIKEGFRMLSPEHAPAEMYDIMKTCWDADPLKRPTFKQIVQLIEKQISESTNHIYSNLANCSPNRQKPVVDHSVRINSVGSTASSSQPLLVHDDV
Method in brief: as §1

[12] = target: FGFR2 (Homo sapiens, UniProt P21802)
Method in brief: as §1

[13] = target: CDK9 (Homo sapiens, UniProt P50750)
Chain of CDK9 (P50750 whole entry): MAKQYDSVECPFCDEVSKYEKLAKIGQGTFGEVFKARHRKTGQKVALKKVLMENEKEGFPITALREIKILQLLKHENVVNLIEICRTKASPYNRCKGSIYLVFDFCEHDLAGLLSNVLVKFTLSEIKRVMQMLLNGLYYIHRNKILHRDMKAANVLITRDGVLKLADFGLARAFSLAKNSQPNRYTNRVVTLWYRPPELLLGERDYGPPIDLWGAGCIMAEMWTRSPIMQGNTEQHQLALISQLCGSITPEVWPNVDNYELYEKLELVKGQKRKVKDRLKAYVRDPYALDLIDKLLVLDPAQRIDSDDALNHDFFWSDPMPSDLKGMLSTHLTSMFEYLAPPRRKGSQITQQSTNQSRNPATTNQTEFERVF
Method in brief: as §1

[14] = target: ACVRL1 (Homo sapiens, UniProt P37023)
Method in brief: as §1

[15] = target: MAP4K3 (Homo sapiens, UniProt Q8IVH8)
Method in brief: as §1

[16] = target: ULK2 (Homo sapiens, UniProt Q8IYT8)
Method in brief: as §1

[17] = target: PRKX (Homo sapiens, UniProt P51817)
Method in brief: as §1

[18] = target: EGFR(S752-I759del) (Homo sapiens, UniProt P00533, DEL752-759)
Chain of EGFR(S752-I759del) (P00533 with tags, fused parts or gaps DEL752-759): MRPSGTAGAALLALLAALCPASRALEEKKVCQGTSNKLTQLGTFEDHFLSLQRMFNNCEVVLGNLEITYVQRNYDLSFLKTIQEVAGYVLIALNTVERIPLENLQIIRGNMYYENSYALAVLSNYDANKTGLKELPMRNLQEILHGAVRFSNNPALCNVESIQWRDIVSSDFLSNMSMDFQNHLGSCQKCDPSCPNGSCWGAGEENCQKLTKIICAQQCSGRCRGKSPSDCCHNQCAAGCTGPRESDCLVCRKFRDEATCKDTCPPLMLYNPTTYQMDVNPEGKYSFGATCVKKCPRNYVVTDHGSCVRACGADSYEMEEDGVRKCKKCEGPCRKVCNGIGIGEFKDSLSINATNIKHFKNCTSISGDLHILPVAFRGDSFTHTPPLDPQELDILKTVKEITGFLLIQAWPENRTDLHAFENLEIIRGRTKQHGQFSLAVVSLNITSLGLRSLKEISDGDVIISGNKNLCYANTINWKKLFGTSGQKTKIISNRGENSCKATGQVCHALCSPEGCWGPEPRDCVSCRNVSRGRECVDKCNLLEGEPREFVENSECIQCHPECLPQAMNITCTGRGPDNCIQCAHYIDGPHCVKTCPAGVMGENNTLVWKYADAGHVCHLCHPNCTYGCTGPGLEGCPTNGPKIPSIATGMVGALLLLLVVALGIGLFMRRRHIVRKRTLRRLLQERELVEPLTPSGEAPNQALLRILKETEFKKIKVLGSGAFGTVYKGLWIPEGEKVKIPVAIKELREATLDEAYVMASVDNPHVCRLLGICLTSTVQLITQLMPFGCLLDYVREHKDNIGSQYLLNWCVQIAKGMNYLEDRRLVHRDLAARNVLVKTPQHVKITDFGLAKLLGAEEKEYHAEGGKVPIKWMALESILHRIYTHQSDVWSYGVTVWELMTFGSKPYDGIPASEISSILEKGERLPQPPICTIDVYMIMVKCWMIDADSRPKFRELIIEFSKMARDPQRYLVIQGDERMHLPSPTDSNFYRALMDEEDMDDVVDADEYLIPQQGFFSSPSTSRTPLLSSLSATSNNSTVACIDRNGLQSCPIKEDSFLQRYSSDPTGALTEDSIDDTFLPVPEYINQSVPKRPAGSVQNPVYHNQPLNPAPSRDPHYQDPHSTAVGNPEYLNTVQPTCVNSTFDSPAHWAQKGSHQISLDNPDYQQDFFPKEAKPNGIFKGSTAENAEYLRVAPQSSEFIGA
Method in brief: as §1

[19] = target: AKT2 (Homo sapiens, UniProt P31751)
Method in brief: as §1

[20] = target: PIK3CA(I800L) (Homo sapiens, UniProt P42336, I800L)
Chain of PIK3CA(I800L) (P42336 whole entry I800L): as the sequence (P42336 whole entry Q546K) above, with K546Q, I800L counted along it
Method in brief: as §1

[21] = target: T2, CDK4-cyclinD3 (Homo sapiens, UniProt P11802)
T2 construct: cyclinD3
Method in brief: as §1

C=C(C)[C@H]1CC=C(C)C(=O)C1 [S-carvone]
remaining binding at 100 µM [1]: 89% | remaining binding at 100 µM [2]: 70% | remaining binding at 100 µM [3]: 78% | remaining binding at 100 µM [4]: 74% | remaining binding at 100 µM [5]: 93% | remaining binding at 100 µM [6]: 91% | remaining binding at 100 µM [7]: 89% | remaining binding at 100 µM [8]: 91% | remaining binding at 100 µM [9]: 83% | remaining binding at 100 µM [10]: 72% | remaining binding at 100 µM [11]: 71% | remaining binding at 100 µM [12]: 80% | remaining binding at 100 µM [13]: 85% | remaining binding at 100 µM [14]: 88% | remaining binding at 100 µM [15]: 90% | remaining binding at 100 µM [16]: 75% | remaining binding at 100 µM [17]: 100% | remaining binding at 100 µM [18]: 66% | remaining binding at 100 µM [19]: 86% | remaining binding at 100 µM [20]: 95% | remaining binding at 100 µM [21]: 86%
